By IC50 is commonly meant the concentration needed to halve the response being measured.

In the first assay the target is DCN1-UBC12 interaction (Homo sapiens (Human), UniProt Q96GG9). The assay can be described thus: biochemical. The format is binding. Particulars: TR-FRET IC50.
Chain of DCN1-UBC12 interaction (Q96GG9 60-248 limits assumed): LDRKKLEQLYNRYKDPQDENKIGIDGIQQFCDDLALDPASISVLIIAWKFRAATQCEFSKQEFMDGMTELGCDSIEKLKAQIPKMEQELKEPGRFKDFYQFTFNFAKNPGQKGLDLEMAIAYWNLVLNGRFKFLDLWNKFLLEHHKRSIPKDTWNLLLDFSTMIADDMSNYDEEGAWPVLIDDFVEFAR
`CCCC(C)N1CCC(N(Cc2ccccc2)C(=O)Nc2cccc(C(C)C)c2)CC1` (centres unmarked) [A33] gave an IC50 of 0.2 µM. The same measure, in the same setting: next, `CCCC(C)N1CCC(N(Cc2ccccc2)C(=O)Nc2ccc(C(F)(F)F)nc2C)CC1` (centres unmarked) [A178]: 15.8 µM.

The same assay, now with this note: Table 4, commercial compounds; read-out: TR-FRET IC50.
In the case of `Cc1cccc(NC(=O)C2CCN(C(=O)c3cccc4ccccc34)CC2)c1` [C63], the IC50 was above 67.6 µM. On the same count and under the same terms, under `COc1ccc(C(=O)N2CCC(C(=O)Nc3ccccc3C)CC2)c2ccccc12` [C62] stands above 67.6 µM. On to `O=C(Nc1ccc(Cl)c(C(F)(F)F)c1)C1CCN(C(=O)c2ccccc2Cl)CC1` [C7], for which the 50% inhibitory concentration (IC50) is above 46 µM. On the same count and under the same terms, under `Cc1ccccc1C(=O)N1CCC(C(=O)Nc2c(F)cccc2F)CC1` [C36] stands above 67.6 µM; under `CCC1CN(C(=O)N2CCC(C(=O)Nc3cccc(Cl)c3)CC2)c2ccccc2O1` (centres unmarked) [C55], above 67.6 µM; under `O=C(Nc1cccc(C(F)(F)F)c1)C1CCN(C(=O)c2cccc(F)c2)CC1` [C10], above 42.9 µM. The same measure, in the same setting: next, `CSc1cccc(NC(=O)C2CCN(C(=O)c3cnn(-c4ccccc4)c3-n3cccc3)CC2)c1` [C9]: above 76.7 µM; `O=C(Nc1ccc(F)c(Cl)c1)C1CCN(C(=O)c2ccc(Br)cc2)CC1` [C70]: above 83.8 µM. Same read-out and setting: next, `COc1ccc(Cl)cc1NC(=O)C1CCN(C(=O)c2ccccc2F)CC1` [C42]: above 67.6 µM.

The assay is the same for the next values; noted with them: Table 6, commercial compounds; read-out: TR-FRET IC50.
For the compound `CCN(CC)CCNC(=O)c1cnn(-c2nccc(-c3cccs3)n2)c1COC` [E31], the 50% inhibitory concentration (IC50) was above 67.6 µM. Consider `CC(=O)N1CCN(C(=O)c2cnn(-c3nccc(-c4cccs4)n3)c2C2CC2)CC1` [E24], for which the IC50 was found to be 61.6 µM. The same measure, in the same setting: next, `CC(C)c1c(C(=O)N2CCN(CCO)CC2)cnn1-c1nccc(-c2cccs2)n1` [E7]: 21.3 µM; `CCN(CC)CCNC(=O)c1cnn(-c2nccc(-c3cccs3)n2)c1C1CC1` [E36]: above 67.6 µM. Take `COCCN(C)C(=O)c1cnn(-c2nccc(-c3cccs3)n2)c1C` [E52]: the IC50 is above 67.6 µM. The same measure, in the same setting: under `CSCCCNC(=O)c1cnn(-c2nccc(-c3cccs3)n2)c1C` [E51] stands above 67.6 µM; under `Cc1cnc(-n2ncc(C(=O)N3CCN(C)CC3)c2C2CC2)nc1-c1cccs1` [E55], above 67.6 µM.

Staying with this assay, now noted: Table 7, commercial compounds; read-out: TR-FRET IC50.
In the case of `Cc1cccc(C2c3c(C)nn(C)c3NC(=O)C2NC(=O)c2ccccc2)c1` (centres unmarked) [F33], the 50% inhibitory concentration (IC50) is above 80.3 µM.

As to `COc1ccc(C2c3c(C)nn(C)c3NC(=O)C2NC(=O)c2ccc(OC)c(OC)c2)cc1F` (centres unmarked) [F20], the IC50 was above 67.6 µM. Still for that read-out and setting: under `Cc1nn(C)c2c1C(c1cccc(F)c1)C(NC(=O)c1ccc(Cl)cc1)C(=O)N2` (centres unmarked) [F10] stands above 67.6 µM. Consider `Cc1nn(C)c2c1C(c1ccc(C(C)(C)C)cc1)C(NC(=O)c1ccccc1)C(=O)N2` (centres unmarked) [F11], for which the IC50 is above 67.6 µM.

The assay is the same for the next values; noted with them: read-out: TR-FRET IC50.
`CCCC(C)N1CCC(N(CCCNC(=O)CCl)C(=O)Nc2cccc(C(F)(F)F)c2)CC1` (centres unmarked) [A245]: the IC50 is above 53.9 µM. On the same count and under the same terms, under `CCCC(C)N1CCC(N(Cc2ccccc2)C(=O)Nc2cccc(OC(F)(F)F)c2)CC1` (centres unmarked) [A12] stands 0.0827 µM; under `COc1ccc(CN(C(=O)Nc2cc(C)ccc2OC)C2CCN(C(C)=O)CC2)cc1` [B87], above 67.6 µM.

On to `Cc1ccc(C(=O)N2CCC(c3nc4ccccc4s3)CC2)cc1C` [D17], for which the half-inhibitory concentration (IC50) was above 53.9 µM. For the compound `CC(N1CCC(N(Cc2ccccc2)C(=O)Nc2cccc(C(F)(F)F)c2)CC1)C(F)(F)F` (centres unmarked) [A223], the IC50 was above 25.3 µM.

For `O=C(Nc1ccc2c(c1)OC(F)(F)O2)NC1CCN(C(=O)c2ccccc2)CC1` [B114], the IC50 was above 74.1 µM. `CCCC(C)N1CCC(N(Cc2ccccc2)C(=O)Nc2nc3c(OC)cccc3s2)CC1` (centres unmarked) [A301]: the concentration for half-maximal inhibition (IC50) was above 86.1 µM. As for `CCCC(C)N1CCC(N(Cc2ccccc2)C(=O)Nc2cc(F)ccc2Cl)CC1` (centres unmarked) [A169], the IC50 came to 11 µM. Still for that read-out and setting: under `CCCC(C)N1CCC(N(Cc2ccccc2)C(=O)Nc2ccc(S(=O)(=O)NC(C)=O)cc2)CC1` (centres unmarked) [A283] stands above 72.1 µM. The same measure, in the same setting: under `CN(C)c1ncncc1NC(=O)NC1CCN(Cc2ccc(F)cc2)CC1` [B109] stands above 72.8 µM; under `CCCC(C)N1CCC(N(Cc2ccccc2)C(=O)Nc2cccc(C)c2)CC1` (centres unmarked) [A82], 0.883 µM; under `C=CS(=O)(=O)NCc1cccc(CN(C(=O)Nc2cccc(C(F)(F)F)c2)C2CCN(C(C)CCC)CC2)c1` (centres unmarked) [A1], 0.0043 µM. Take `CC(C)C(C)N1CCC(N(Cc2ccccc2)C(=O)Nc2cc(F)cc(C(F)(F)F)c2)CC1` (centres unmarked) [A122]: the 50% inhibitory concentration (IC50) came to 1.12 µM. Still for that read-out and setting: next, `CCCC(C)N1CCC(N(Cc2cccnc2)C(=O)Nc2cc(F)cc(C(F)(F)F)c2)CC1` (centres unmarked) [A39]: 0.213 µM; `C#CCCCN1CCC(N(Cc2ccccc2NC(=O)C=C)C(=O)Nc2cccc(C(F)(F)F)c2)CC1` [A119]: 0.353 µM. Turning to `CCCN1CCC(N(Cc2cc(F)cc(C(F)(F)F)c2)C(=O)Nc2cccc(C(F)(F)F)c2)CC1` [A68, 1-(3-Fluoro-5-(Trifluoromethyl)Benzyl)-1-(1-Propylpiperidin-4-yl)-3-(3-(Trifluoromethyl)Phenyl)Urea], the 50% inhibitory concentration (IC50) amounted to 0.488 µM. For the compound `COc1ccc(CN(C(=O)Nc2ccccc2C)C2CCN(C(C)=O)CC2)cc1` [B84], the IC50 is above 67.6 µM. Consider `CCCC(C)N1CCC(N(Cc2ccccc2)C(=O)Nc2cc(C(F)(F)F)ccc2Cl)CC1` (centres unmarked) [A101], for which the IC50 is 1.6 µM. Same read-out and setting: next, `CCCC(C)N1CCC(N(Cc2ccccc2)C(=O)Nc2ccc3c(c2)CCC3)CC1` (centres unmarked) [A8]: 0.0767 µM; `CCCC(C)N1CCC(N(Cc2ccccc2)C(=O)Nc2cccc(F)c2C)CC1` (centres unmarked) [A151]: 5.66 µM. For `COc1ccc(CN(C(=O)Nc2ccccc2C(F)(F)F)C2CCN(C(C)=O)CC2)cc1` [B85], the IC50 was above 67.6 µM. Same read-out and setting: under `CCCC(C)N1CCC(N(Cc2ccccc2NC(=O)CCl)C(=O)Nc2cccc(C(F)(F)F)c2)CC1` (centres unmarked) [A38] stands 0.208 µM; under `C#CCCCN1CCC(N(Cc2ccccc2NC(=O)CC)C(=O)Nc2ccc(Cl)c(Cl)c2)CC1` [A199], above 14.5 µM. Still for that read-out and setting: next, `O=C(Nc1ccc(CN2CCCC2)cc1)Nc1cccc(C(F)(F)F)c1` [B105]: above 71.3 µM.

Regarding `CCN1CCC(N(Cc2ccco2)C(=O)Nc2ccc(OC)c(OC)c2)CC1` [B77], the IC50 is above 67.6 µM. The same measure, in the same setting: next, `O=C(c1ccccc1O)N1CCC(c2nc3ccccc3s2)CC1` [D29]: above 67.6 µM; `CCCC(C)N1CCC(N(Cc2ccccc2)C(=O)Nc2c(OC)cccc2OC)CC1` (centres unmarked) [A299]: above 85.7 µM; `C=CS(=O)(=O)Nc1cccc(CN(C(=O)Nc2cccc(C(F)(F)F)c2)C2CCN(C(C)CCC)CC2)c1` (centres unmarked) [drawing 844]: 0.165 µM.

With `CCCCN1CCC(N(Cc2ccccc2)C(=O)Nc2cccc(C)c2)CC1` [A95], the IC50 was 1.32 µM. For the compound `Cc1cccc(C(=O)N2CCC(c3nc4ccccc4s3)CC2)c1` [D4], the concentration for half-maximal inhibition (IC50) came out at 18 µM. The same measure, in the same setting: under `O=C(Nc1cc(F)cc(C(F)(F)F)c1)N(Cc1ccccc1)C1CCN(Cc2ccc(Cc3ccccc3)cc2)CC1` [A211] stands above 21.8 µM; under `CCCCN1CCC(N(Cc2ccccc2)C(=O)Nc2cccc(F)c2)CC1` [A136], 3.57 µM. The same measure, in the same setting: next, `CCCC(C)N1CCC(N(Cc2ccccc2)C(=O)Nc2ccc(-c3cccc(C(=O)OC)c3)cc2)CC1` (centres unmarked) [A116]: 2.37 µM; `CCCCN1CCC(N(Cc2ccc3c(c2)OCO3)C(=O)Nc2ccc(F)c(C(F)(F)F)c2)CC1` [A114]: 2.35 µM; `CCCN1CCC(NC(=O)Nc2ccc(C)c(Cl)c2)CC1` [B34]: above 55.5 µM.

For the compound `CCCC(C)N1CCC(N(Cc2ccccc2)C(=O)Nc2ccc(CN(C)C)cc2)CC1` (centres unmarked) [A236], the IC50 is above 45.4 µM. Still for that read-out and setting: under `CCCC(C)N1CCC(N(Cc2ccccc2)C(=O)Nc2ccc(C)c([N+](=O)[O-])c2)CC1` (centres unmarked) [A36] stands 0.206 µM. Same read-out and setting: under `CCCC(C)N1CCC(N(Cc2ccccc2)C(=O)Nc2ccccc2Sc2ccccc2)CC1` (centres unmarked) [A303] stands above 89.9 µM. The same measure, in the same setting: under `COc1cccc(CN2CCC(N(Cc3ccccc3)C(=O)Nc3cc(F)cc(C(F)(F)F)c3)CC2)c1` [A231] stands above 28.9 µM; under `CCCC(C)N1CCC(N(Cc2ccccc2)C(=O)Nc2ccccc2C(N)=O)CC1` (centres unmarked) [A257], above 61.8 µM. For the compound `COc1cc(SC)ccc1C(=O)N1CCC(c2nc3ccccc3s2)CC1` [D21], the 50% inhibitory concentration (IC50) is above 67.6 µM. Same read-out and setting: next, `CCCc1ccc(NC(=O)N(Cc2ccccc2)C2CCN(C(C)CCC)CC2)cc1` (centres unmarked) [A66]: 0.47 µM.

Regarding `CCCC(C)N1CCC(N(Cc2ccccc2)C(=O)Nc2ccc(OC)c(F)c2)CC1` (centres unmarked) [A109], the IC50 was determined as 2.2 µM. Still for that read-out and setting: next, `CCCC(C)N1CCC(N(Cc2ccccc2)C(=O)Nc2ccc3ncccc3c2)CC1` (centres unmarked) [A207]: above 21 µM; `CCCC(C)N1CCC(N(Cc2ccccc2)C(=O)Nc2cc(C)oc2C(F)(F)F)CC1` (centres unmarked) [A255]: above 60.2 µM. The same measure, in the same setting: under `CCCC(C)N1CCC(N(Cc2ccccc2)C(=O)Nc2cc(C(F)(F)F)ccc2F)CC1` (centres unmarked) [A154] stands 6.51 µM; under `CCCC(C)N1CCC(N(Cc2ccccc2)C(=O)Nc2cc(Cl)c(O)c(Cl)c2)CC1` (centres unmarked) [A260], above 62.5 µM. For `COc1cccc(NC(=O)NC2CCN(C(C)C)CC2)c1` [B60], the IC50 is above 67.6 µM. On the same count and under the same terms, under `CCCC(C)N1CCC(N(Cc2ccccc2)C(=O)Nc2ccccc2N2CCOCC2)CC1` (centres unmarked) [A243] stands above 52.8 µM; under `CCCC(C)N1CCC(N(Cc2ccccc2)C(=O)Nc2ccc(Br)cc2Cl)CC1` (centres unmarked) [A111], 2.24 µM.

On to `O=C(Nc1cccnc1Cl)NC1CCN(C(=O)c2ccccc2F)CC1` [B30], for which the concentration for half-maximal inhibition (IC50) is above 53.3 µM. For `CCOc1ccccc1NC(=O)N(Cc1ccc(C)o1)C1CCN(Cc2ccccc2)CC1` [B92], the 50% inhibitory concentration (IC50) is above 67.6 µM. `COc1ccc(CN(C(=O)Nc2ccccc2Cl)C2CCN(C(C)=O)CC2)cc1` [B13]: the concentration for half-maximal inhibition (IC50) was 37.5 µM. The same measure, in the same setting: under `COc1ccc(C)cc1NC(=O)N(Cc1ccc(C)o1)C1CCN(Cc2ccccc2)CC1` [B95] stands above 67.6 µM; under `FC(F)(F)c1cccc(CNC2CCN(Cc3ccccc3)CC2)c1` [B32], above 55.3 µM.

Regarding `CCCC(C)N1CCC(N(Cc2ccccc2)C(=O)Nc2ccc(C(=O)OC)cc2)CC1` (centres unmarked) [A163], the IC50 came to 8.42 µM. `C=CC(=O)NCc1cccc(CN(C(=O)Nc2cccc(C(F)(F)F)c2)C2CCN(C(C)CCC)CC2)c1` (centres unmarked) [drawing 845]: the IC50 is 0.018 µM. On the same count and under the same terms, next, `O=C(CN1CCN(c2ccccc2)CC1)Nc1cccc(C(F)(F)F)c1` [B37]: above 60.6 µM.

For the origin of these results see patent US11116757B2 (priority 2015, dated 2021).
